Assays:
Assay type in all cases: cell-based, human
[1] = system: dermal fibroblasts spheroids (DFSs); experiment: On-chip screening of active ingredients on DFSs: collagen type I and fibronectin secretion (ELISA of culture supernatant)
Experimental: The microfluidic device was first, purged for 20 min with fluorinated oil with 0.5 wt % 008-fluorosurfactant (RAN Biotechnologies, USA) at a flow rate of 0.1 mL/hr. Subsequently, the supplying channel and the microwells were filled with the hDFs-in-EKGel I suspension with a cell density of 4.9×10^5 cells/μL. After that, the cell suspension in the supplying channel was replaced with fluorinated oil with 0.5 wt % surfactants. The inlet and outlet of the microfluidics quadruplet device were then sealed with PCR sealing tape and incubated at 37° C. for 2 hours, allowing EKGel to gel. Subsequently, the complete culture medium was continuously flowed through the supplying channel at the flow rate of 0.025 mL/hr. On the second day (Day 1), hDFs-laden EKGel droplets transformed into dermal fibroblasts spheroids (DFSs). Due to the contraction of DFSs, free space was present in each microwell, which allowed the incorporation of a second layer. To introduce another layer of keratinocytes, the culture medium was replaced by fluorinated oil with 0.5 wt % surfactants.
(§1) To study the effect of vitamin C or retinol on DFSs or KDFSs, on Day 2 the complete culture medium was replaced with 1% FBS DMEM culture medium with 1% (v/v) penicillin/streptomycin containing 0, 20, or 100 μg/mL vitamin C. Retinol at concentrations of 0, 30, 45, 60 μM was dissolved in 1% FBS DMEM culture medium with 1% (v/v) penicillin/streptomycin and 0.1% dimethyl sulfoxide (DMSO). The culture supernatant was collected from the outlet every 24-hours for analysis.
The amount of procollagen type I and fibronectin synthesized by hDFs and released in the supernatant were quantified using two ELISA kits, namely, Procollagen Type I C-Peptide (PIP) ELISA kit (MK101, Takara Bio Inc.) and Fibronectin ELISA kit (MK115, Takara Bio Inc.). Procollagen type I was used as the indicator for the collagen type I synthesized from hDFs. To determine the amount of procollagen type I synthesized by the cells, 20 μL collected culture supernatant and 100 μL of the anti-PIP antibody-peroxidase (POD) were added into a 96-well microplate coated with anti-PIP antibody and incubated at 37° C. for 3 hours. To determine the amount of fibronectin synthesized by the cells, 100 μL of the supernatant was first, added to the antibody-coated 96-well microplate for 1 hour at 37° C., thus allowing the fibronectin in the supernatant to bond to the antibody-coated on the microplate.
The supernatant was then discarded, and the microplates were washed with 1×PBS (MK021, Takara Bio Inc.) three times. Subsequently, the captured fibronectin was tagged by adding 100 μL of anti-human fibronectin antibody-POD conjugate into the microplate and incubating it for another 1 hour at 37° C. Upon completion of the antibody-POD conjugate incubation for both assays, the liquid content in the microwells was discarded and the microwells were washed four times with 1×PBS. 100 μL substrate solution (solution of 3,3′,5,5′-tetramethylbenzidine) was then added to the wells and incubated at room temperature for 15 min. Subsequently, 100 μL stop solution (MK021, Takara Bio Inc.) was added to each well. After stopping the reaction between POD and substrate, the absorbance of the contents of each microwell at 450 nm was measured by the CLARIOstar plate reader.

[2] = system: dermal fibroblasts spheroids (DFSs); experiment: Immunofluorescence staining of collagen type I and fibronectin deposited in DFSs on the chip; details: 72-hour treatment, 100 μg/mL vs 0 μg/mL vitamin C
Experimental: as §1
The immunofluorescence staining on DFSs/KDFSs formed in the microfluidic device was conducted by flowing a series of solutions at a flow rate of 0.15 mL/hr into the supplying microchannel in the following order. First, 1× Hanks' Balanced Salt Solution (HBSS) was flowed into the device for 20 min to remove the cell culture medium. Subsequently, a 5% formalin solution in HBSS was flowed to fix the DFSs/DKFSs. Subsequently, the formalin was washed away by purging 0.1 M glycine in 1×HBSS for 60 min. To permeate the DFSs/KDFSs, 0.5% triton-X in 1×HBSS was flowed into the device for 30 min. Subsequently, an immunofluorescence (IF) solution (consisting of 0.05 wt % NaN3, 0.1 wt % bovine serum albumin, 0.2 vol. % triton-X-100 and 0.05 vol. % Tween-20 in HBSS) was flowed to the microfluidics for 45 min. Primary blocking solution (10 wt % goat serum in IF washing solution) was then flowed for 60 min. […]

[3] = system: keratinocyte-dermal fibroblasts spheroids (KDFSs); experiment: Vitamin C screening on KDFSs: collagen type I and fibronectin secretion; details: 24-hour treatment; KDFSs from two lineages of dermal fibroblasts
Experimental: Keratinocytes were suspended in EKGel II precursor solution at a cell/gel mass ratio of 75:25. The keratinocytes-in-EKGel II suspension was then purged into the channel and filled the microwells. Consequently, the cell suspension in the supplying channel was washed away by fluorinated oil mixed with 0.5 wt % surfactants. The device was sealed and incubated at 37° C. for 1 hour. Finally, the complete culture medium was flowed to the microfluidic device at the flow rate of 0.025 mL/hr. On Day 2, keratinocytes aggregated and integrated with the hDF core to form layered skin spheroids, KDFSs.
To study the effect of vitamin C or retinol on DFSs or KDFSs, on Day 2 the complete culture medium was replaced with 1% FBS DMEM culture medium with 1% (v/v) penicillin/streptomycin containing 0, 20, or 100 μg/mL vitamin C. […]
The amount of procollagen type I and fibronectin synthesized by hDFs and released in the supernatant were quantified using two ELISA kits, namely, Procollagen Type I C-Peptide (PIP) ELISA kit (MK101, Takara Bio Inc.) and Fibronectin ELISA kit (MK115, Takara Bio Inc.). […]
The supernatant was then discarded, and the microplates were washed with 1×PBS (MK021, Takara Bio Inc.) three times. […] After stopping the reaction between POD and substrate, the absorbance of the contents of each microwell at 450 nm was measured by the CLARIOstar plate reader.

[4] = 100 μg/mL vitamin C for 24-hours

With `CC1=C(/C=C/C(C)=C/C=C/C(C)=C/CO)C(C)(C)CCC1` [retinol] the “effect on fibronectin production in DFSs” value ([1]; retinol 30 μM, preliminary study) was “positive and significant effect”, the “effect on fibronectin production in DFSs” value ([1]; retinol 45 μM, preliminary study) was “positive and significant effect” and the “effect of retinol on DFSs (fibronectin production)” value ([1]; retinol 60 μM, longer incubation time (day 5), preliminary study) was “negative effect”. The “effect on collagen expression in DFSs” value ([1]; retinol 30, 45, 60 μM, preliminary study) was “significant positive effect of retinol was not yet observed”.

In the case of `O=C1O[C@H]([C@@H](O)CO)C(O)=C1O` [vitamin C], the “deposition of collagen type I in DFSs” value [2] is reported as “increased”, the “deposition of fibronectin in DFSs” value [2] is reported as “increased” and the “collagen type I secretion from DFSs” value [1, 4] is reported as “increased level”. For the same molecule, the “fibronectin secretion from DFSs” value [1, 4] was “increased level” and the “concentration required to stimulate the production of collagen and fibronectin in KDFSs compared to DFSs” value [3] was “a higher concentration of vitamin C was required”.

Source: patent US20240002789A1, “SKIN SPHEROIDS AND PROCESS OF PREPARATION AND USE THEREOF” (The Governing Council of The University of Toronto, priority 2020, published 2024)
